Test results reported in the supplement of paper PMC4862054.

Tests used:
Assay in all cases: normalised viability (% of control), CellTiter-Blue; higher = more viable cells (about 100 = DMSO control)
BT-549 [1] = details: 10 nM; incubation time: 72 h
Protocol: (§1)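 DSRT, CellTiter-Blue viability, 72 h incubation. Signal is normalised to DMSO and benzethonium chloride controls. Value is the normalised response at dose 3.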

CAL-120 [2] = details: 10 nM; incubation time: 72 h
Protocol: as §1

DU-4475 [3] = details: 1 nM; incubation time: 72 h
Protocol: as §1

HCC1937 [4] = details: 10 nM; incubation time: 72 h
Protocol: as §1

HDQ-P1 [5] = details: 1 nM; incubation time: 72 h
Protocol: as §1

MDA-MB-231 [6] = details: 10 nM; incubation time: 72 h
Protocol: as §1

MDA-MB-468 [7] = details: 10 nM; incubation time: 72 h
Protocol: as §1

SK-BR-3 [8] = details: 10 nM; incubation time: 72 h
Protocol: as §1

BT-474 = details: incubation time: 72 h
How it was run: (§2)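 Breast cancer cell lines in 20 µl suspension were seeded onto 384-well plates pre-loaded with compound dissolved in 5 µl medium, then incubated 72 h. CellTiter-Blue reagent (2.5 µl) was added for 2 h at 37 °C and fluorescence read at 560/590 nm. Each plate was normalised to vehicle (100) and a positive kill control (0), with Z'-factor quality control. The value is normalised viability at one listed concentration of the series.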

BT-549 [9] = details: incubation time: 72 h
How it was run: as §2

CAL-120 [10] = details: incubation time: 72 h
How it was run: as §2

CAL-148 = details: incubation time: 72 h
How it was run: as §2

CAL-51 = details: incubation time: 72 h
How it was run: as §2

CAL-85-1 = details: incubation time: 72 h
How it was run: as §2

DU-4475 [11] = details: incubation time: 72 h
How it was run: as §2

HCC1143 = details: incubation time: 72 h
How it was run: as §2

HCC1599 = details: incubation time: 72 h
How it was run: as §2

HCC1937 [12] = details: incubation time: 72 h
How it was run: as §2

HDQ-P1 [13] = details: incubation time: 72 h
How it was run: as §2

Hs578T = details: incubation time: 72 h
How it was run: as §2

MDA-MB-231 [14] = details: incubation time: 72 h
How it was run: as §2

MDA-MB-436 = details: incubation time: 72 h
How it was run: as §2

MDA-MB-453 = details: incubation time: 72 h
How it was run: as §2

MDA-MB-468 [15] = details: incubation time: 72 h
How it was run: as §2

MFM-223 = details: incubation time: 72 h
How it was run: as §2

SK-BR-3 [16] = details: incubation time: 72 h
How it was run: as §2

CC[C@]1(O)C[C@@H]2CN(CCc3c([nH]c4ccccc34)[C@@](C(=O)OC)(c3cc4c(cc3OC)N(C)[C@H]3[C@@](O)(C(=O)OC)[C@H](OC(C)=O)[C@]5(CC)C=CCN6CC[C@]43[C@@H]65)C2)C1 [Vinblastine]
Details	normalised viability [%]
BT-549 [1]	26.3
CAL-120 [2]	19.1
DU-4475 [3]	102
HCC1937 [4]	20.6
HDQ-P1 [5]	106
MDA-MB-231 [6]	20.1
MDA-MB-468 [7]	39.3
SK-BR-3 [8]	13

normalised viability [%]
Details	0.3 nM	1 nM	3 nM	10 nM	100 nM	1000 nM
BT-474	–	51.8	–	–	54.2	52.7
BT-549 [9]	–	90.7	–	–	19.4	17
CAL-51	108	–	106	96.4	–	–
CAL-85-1	89.9	–	94.9	48.3	–	–
CAL-120 [10]	–	35.4	–	–	18.5	20.1
CAL-148	76.8	–	78.8	79	–	–
DU-4475 [11]	105	–	96.5	82.9	–	–
HCC1143	–	77.3	–	–	42.7	29.5
HCC1599	–	106	–	–	56.9	45.5
HCC1937 [12]	–	46	–	–	18.7	15.6
HDQ-P1 [13]	92.6	–	87.3	47.5	–	–
Hs578T	–	70.4	–	–	14.8	13.2
MDA-MB-231 [14]	–	70	–	–	13.4	12
MDA-MB-436	–	93	–	–	28.8	37
MDA-MB-453	115	–	99.8	36.8	–	–
MDA-MB-468 [15]	–	83.8	–	–	36.6	41.8
MFM-223	–	96.7	–	–	43.9	24.9
SK-BR-3 [16]	–	27.6	–	–	16.5	16.4

Nc1nc(Cl)nc2c1ncn2[C@H]1C[C@H](O)[C@@H](CO)O1 [Cladribine]
Details	normalised viability [%]
BT-549 [1]	92
CAL-120 [2]	97.4
DU-4475 [3]	108
HCC1937 [4]	84.8
HDQ-P1 [5]	120
MDA-MB-231 [6]	83
MDA-MB-468 [7]	104
SK-BR-3 [8]	95

normalised viability [%]
Details	0.3 nM	1 nM	3 nM	10 nM	100 nM	1000 nM
BT-474	–	112	–	–	102	103
BT-549 [9]	–	82.5	–	–	86.4	45.8
CAL-51	119	–	116	114	–	–
CAL-85-1	102	–	101	105	–	–
CAL-120 [10]	–	87.2	–	–	79.7	48.1
CAL-148	91.9	–	109	93	–	–
DU-4475 [11]	106	–	104	102	–	–
HCC1143	–	91.9	–	–	87.6	72.2
HCC1599	–	97.8	–	–	83	91.7
HCC1937 [12]	–	91.8	–	–	56.8	43.4
HDQ-P1 [13]	113	–	101	109	–	–
Hs578T	–	111	–	–	104	105
MDA-MB-231 [14]	–	101	–	–	67	71.9
MDA-MB-436	–	101	–	–	90	65.8
MDA-MB-453	126	–	97.4	89.7	–	–
MDA-MB-468 [15]	–	99.6	–	–	94.4	82.8
MFM-223	–	86.2	–	–	86.7	90
SK-BR-3 [16]	–	92.6	–	–	99.7	42.4
